Data taken from US8192734B2, “Compositions and methods for bone strengthening” (Cornell University, priority 2007, dated 2012).

What was measured:
[1] = tested on: pigs fed P-adequate corn-soybean meal basal diet; experiment: Expt 2: femur geometrical and strength properties; assay type: in vivo, pig; conditions: phytase 2000 U/kg and/or Sr 50 mg/kg, n=6
Description: A three-point bending test was conducted on the dissected bones to generate load-deformation curves with an Instron Model 5566 (Norwood, Mass.). Mechanical properties of bones were calculated using formula as previously described^(29). Bone cross sections were cut at the mid-point of loading and used to determine area moment of inertia. Cross sections were submersed for 5 min in a 0.4 mol/L sodium hypochlorite solution to remove periosteum and marrow tissue, and then embedded in blue clay (Play-Doh, Hasbro, Pawtucket, R.I.) to prevent depth-of-field distortions and to enhance contrasts. The embedded sections were scanned with a flat-bed scanner (Epson Perfection Model 3490, Long Beach, Calif.) and analyzed using Image J software (30) to measure the x-y coordinates of bone pixels.

[2] = tested on: pigs fed P-adequate corn-soybean meal basal diet; experiment: Expt 2: BMC, BMD and bone area by dual energy X-ray absorptiometry; assay type: in vivo, pig; conditions: main effect, phytase 2,000 U/kg or Sr 50 mg/kg
Description: In Experiment 2, bone mineral content (BMC, g) and bone mineral density (BMD, g/cm^2) of 3rd and 4th metatarsals from the left foot and femur from the left leg of each pig were measured. After being thawed to room temperature, entire bones were placed on a rice bag (to remove background effects) and scanned by dual energy X-ray absorptiometry using the GE Lunar Prodigy instrument (GE Lunar, Prodigy, Madison Wis.) in the small animal scan mode. Values of BMC and BMD were predicted by analysis of scans using Prodigy software (version 10.10.038).

[3] = tested on: pigs fed P-adequate corn-soybean meal basal diet; experiment: Expt 2: metatarsal and femur mineral concentrations (ICP); assay type: in vivo, pig
Description: After the breaking strength analysis, samples (˜100 to 200 mg) of metatarsals in both experiments and femur in Experiment 2 from the right legs were used for mineral analysis. Cortical bones were isolated after removing attached connective tissue using a stainless steel scalpel and collecting individual shards using needle-nosed pliers with plastic-covered clamps. […] Concentrations of individual elements in the dried bone samples were measured using inductively coupled argon plasma spectrophotometer (ICAP 61E Trace Analyzer, Thermo Jarell Ash corporation, Franklin, Mass.)(31). Samples were digested in a mixture of HNO3 and HClO4 (9:1, vol/vol), and then diluted in 5% HNO3 before analysis.

[4] = tested on: pigs fed P-adequate corn-soybean meal basal diet; experiment: Expt 2: metatarsal and femur breaking strength, three-point bending test; assay type: in vivo, pig; conditions: main effect, phytase 2,000 U/kg or Sr 50 mg/kg
Description: Third and 4th metatarsals in both experiments and femur (right leg) in Experiment 2 were prepared by manually removing surrounding skin, muscle and other tissues. Bones were stored in closed plastic bags at 4° C. until strength analysis. Maximal breaking load was measured using an Instron 4500 Machine (Canton, Mass.) at room temperature (23° C.) by subjecting each bone to a three-point bending test^(28). During mechanical tests, force was applied to the center of the bone held by supports 2.0 cm apart for metatarsals and 3.3 cm apart for femur. The crosshead speed was set at 50 mm/min and the sample rate was 10 points/s. Final strength was determined from load-displacement curves indicating the maximum loads. The metatarsal breaking strength was expressed as the mean strength of four bones from both left and right feet of pigs in Experiment 1, and as the mean of the two bones from the right foot of pigs in Experiment 2.

rats = conditions: cited from earlier work
mice = conditions: cited from earlier work
[5] = main effect of Sr 50 mg/kg, P<0.0001
[6] = phytase 2000 U/kg and/or Sr 50 mg/kg, n=6

In the case of O=C([O-])[O-].[Sr+2] [Sr, SrCO3], the “femur Cross-sectional area” value [1] is reported as 151 mm^2, the “femur Cross-sectional radius” value [1] is reported as 9.0 mm and the “femur Maximum bending moment” value [1] is reported as 2286 kg × mm. For the same compound, the “femur Maximum stress” value [1] was 4.3 kg/mm^2, the “femur Modulus of elasticity” value [1] was 50 kg/mm^2 and the “femur Moment of inertia” value [1] was 4891 mm^4. The “femur Strain” value [1] was 0.05, the “femur Yield bending moment” value [1] was 1384 kg-mm and the “femur Yield stress” value [1] was 2.6 kg/mm^2. For the same compound, the “elevation of BMD of the two bones (metatarsal, femur)” value [2] was 6%, the “enhancement of BMC in both bones (metatarsal, femur)” value [2] was 6 to 8% and the “elevation of metatarsal concentration of Sr” value [3, 5] was 4 fold. The “enhancement of femur concentration of Sr” value [3, 5] was 3.9 fold, the “femur Cr concentration” value [3, 6] was 7.0 mg/kg and the “femur Fe concentration” value [3, 6] was 6.9 mg/kg. The “femur Mg concentration” value [3, 6] was 5.4 g/kg, the “femur Mn concentration” value [3, 6] was 0.6 mg/kg and the “femur Na concentration” value [3, 6] was 8.0 g/kg. For the same compound, the “femur P concentration” value [3, 6] was 176.3 g/kg, the “femur S concentration” value [3, 6] was 1.1 g/kg and the “femur Sr concentration” value [3, 6] was 418.9 mg/kg. The “femur Zn concentration” value [3, 6] was 209.6 mg/kg, the “metatarsal Cr concentration” value [3, 6] was 26.6 mg/kg and the “metatarsal Fe concentration” value [3, 6] was 23.5 mg/kg. For the same compound, the “metatarsal Mg concentration” value [3, 6] was 3.5 g/kg, the “metatarsal Mn concentration” value [3, 6] was 2.8 mg/kg and the “metatarsal Na concentration” value [3, 6] was 6.8 g/kg. The “metatarsal P concentration” value [3, 6] was 88.1 g/kg, the “metatarsal S concentration” value [3, 6] was 1.0 g/kg and the “metatarsal Sr concentration” value [3, 6] was 330.6 mg/kg. For the same compound, the “metatarsal Zn concentration” value [3, 6] was 146.8 mg/kg, the “improvement in breaking strength of femur” value [4] was 10% and the “improvement in breaking strength of metatarsals” value [4] was 11%.
In the case of [Br-].[Br-].[Sr+2] [strontium bromide], the LD50 (rats) is given as 1 g/kg body weight.
In the case of [Cl-].[Cl-].[Sr+2] [strontium chloride], the LD50 (mice) is given as 147.6 mg/kg body weight.
For [I-].[I-].[Sr+2] [strontium iodide], the LD50 (rats) is given as 800 mg/kg body weight.
In the case of strontium acetate, the LD50 (rats) is listed as 1.16 mmol/kg.
